The test system of experiment [1] is genotype A, "Long" strain RSV. The experiment can be described thus: RSV-A assay (CPE, ATPlite readout in Hep-2 cells). The experiment is classed as cell-based. The conditions noted are these: human respiratory syncytial virus, HEp-2, Hep-2 cells, genotype A "Long" strain RSV, MOI 0.1; read-out: Human RSV-A (“Long” strain) EC50. Put shortly: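 Hep-2 cells (8,000/well) received 2-fold serial compound dilutions in duplicate and RSV Long strain at MOI 0.1. After 5 days' incubation, cell health was read as ATP by ATPlite luminescence, with virus-only and uninfected controls defining max and minimum CPE; EC50 reported.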
Background: ATP-based viability assays read luminescence as a measure of living cells.

Experiment [2] deals with recombinant HMPV CAN97-83 (MPV-GFP1). The experiment can be described thus: HMPV antiviral assay (MPV-GFP1 eGFP fluorescence in Vero E6 cells). It counts as cell-based. The following applies: human metapneumovirus, Vero C1008, 120 h, read-out: HMPV EC50. Here is the method: HMPV antiviral activity was evaluated using a recombinant version of HMPV CAN97-83 engineered to contain the coding sequence for enhanced green fluorescence protein (eGFP) in the 3′ end of the virus genome (MPV-GFP1, ViraTree). Vero E6 cells ([…]) were seeded at a density of 12,000 cells/100 μL/well into 96-well cell plates one day prior to the assay. On the day of screening, the cell culture medium was aspirated from the wells and cells were washed twice with serum-free Eagle's Modified Essential Medium (EMEM, ATCC #) containing 1% penicillin-streptomycin (Invitrogen) (SF-EMEM). Cell washes were performed by dispensing 100 μL SF-EMEM per well and immediately aspirating the wash medium from the well. Following the second wash step, serum-free OptiMEM (Invitrogen, Cat No.) (SF-OptiMEM) containing 0.5 μg/mL TPCK-Trypsin (VENDOR) and 1% penicillin-streptomycin was added to the cells at 50 μL/well. Compounds were added into the 96-well plates using a JANUS automated liquid handling system (VENDOR). Compounds were initially diluted 1:50 into an intermediate 96-well plate containing SF-OptiMEM prior to transfer to the assay plate (25 μL/well). Each of the test compounds were tested in duplicate wells at final concentrations starting from 8 μM or 2 μM using ½ stepwise dilutions for a total of 8 points. Virus infection was performed by preparing a working stock of MPV-GFP1 at a multiplicity of infection (MOI) equal to 0.05/25 μL and aliquoting 25 μL of virus inoculum to the compound and positive control wells. SF-OptiMEM was added (25 μL/well) to the appropriate wells to serve as a virus-free negative control for the assay. The final DMSO concentration of all wells is 0.5%. Plates were incubated at 32° C., 5% CO2 for 5 days.
After 5 days incubation, eGFP fluorescence intensity was measured at […] using a Spectramax i3X plate reader (VENDOR). Percent viral inhibition was calculated using the following equation: y=[[…]−(XQ/XP)]×100 Where XQ is the fluorescence intensity measured in a well containing recombinant MPV-GFP1-infected, compound-treated cells and XP is the average fluorescence intensity measured in the wells containing untreated cells infected with recombinant virus. EC50 values were then calculated by non-linear regression using a four parameter curve logistic equation. The curve fit model employed was XLFit Dose Response One Site Model 200: y=(A+(B/(1+((x/C)^D)))) Where A is the minimum y value, B is the maximum y value, C is the log EC50 value, and D is the slope factor. […] EC50 ranges are as follows: A<0.5 μM; B>0.5 μM.

A value given as a limit tells only on which side of the number the result lay.

The term EC50 denotes the concentration giving half of the maximal effect. With `COc1cc(C(=O)NCC(O)(c2cc3c(c(-c4ccc(F)cc4)n2)OC[C@]3(C)C(=O)NC2CC2)C(F)(F)F)cc2cccnc12` (some centres unmarked) [Example 27], the figures for the half-maximal effective concentration (EC50) in experiment [1] and in experiment [2] were below 200 nM and below 500 nM, respectively.

Take `COc1nccc(C(=O)NC[C@](O)(c2cc3c(c(-c4ccc(F)cc4)n2)OC[C@]3(C)CNCC2CC2)C(F)(F)F)n1` [Example 34]: the EC50 in experiment [1] was above 200 nM; in experiment [2], above 500 nM.

As for `C[C@]1(CNCC2CC2)COc2c1cc([C@@](O)(CNC(=O)c1ccnc(C(F)(F)F)n1)C(F)(F)F)nc2-c1ccc(F)cc1` [Example 35], the values for the EC50 in experiment [1] and in experiment [2] were above 200 nM and above 500 nM, respectively.

For `COc1ncc(C(=O)NC[C@](O)(c2cc3c(c(-c4ccc(F)cc4)n2)OC[C@]3(C)CNCC2CC2)C(F)(F)F)s1` [Example 36], the EC50 in experiment [1] is above 200 nM; in experiment [2], above 500 nM.

Consider `COc1cc(C(=O)NC[C@](O)(c2cc3c(c(-c4ccc(F)cc4)n2)OC[C@]3(C)CNCC2CC2)C(F)(F)F)ccn1` [Example 37], for which the figures for the concentration for a half-maximal effect (EC50) in experiment [1] and in experiment [2] were above 200 nM and above 500 nM, respectively.

Regarding `COc1cc(C(=O)NC[C@](O)(c2cc3c(c(-c4ccc(F)cc4)n2)OC[C@]3(C)CNC2(C)CC2)C(F)(F)F)cc2cccnc12` [Example 44], the results for the EC50 in experiment [1] and in experiment [2] were below 200 nM and above 500 nM, respectively.

In the case of `CNC(=O)[C@@]1(C)COc2c1cc([C@@](O)(CNC(=O)c1cc(OC)c3ncccc3c1)C(F)(F)F)nc2-c1ccc(F)cc1` [Example 46], the EC50 was below 200 nM in experiment [1] and below 500 nM in experiment [2].

With `COc1cc(C(=O)NC[C@](O)(c2cc3c(c(-c4ccc(F)cc4)n2)OC[C@]3(C)C(=O)NC2COC2)C(F)(F)F)cc2cccnc12` [Example 52], the values for the EC50 in experiment [1] and in experiment [2] were below 200 nM and below 500 nM, respectively.

In the case of `COc1cc(C(=O)NC[C@](O)(c2cc3c(c(-c4ccc(F)cc4)n2)OC[C@]3(C)C(=O)NO)C(F)(F)F)cc2cccnc12` [Example 53], the figures for the concentration giving a half-maximal response (EC50) in experiment [1] and in experiment [2] were below 200 nM and above 500 nM, respectively.

For `CCNC(=O)[C@@]1(C)COc2c1cc([C@@](O)(CNC(=O)c1cc(OC)c3ncccc3c1)C(F)(F)F)nc2-c1ccc(F)cc1` [Example 56], the 50% effective concentration (EC50) in experiment [1] is below 200 nM; in experiment [2], below 500 nM.

Take `C[C@]1(C(N)=O)COc2c1cc([C@@](O)(CNC(=O)c1cc(O)c3ncccc3c1)C(F)(F)F)nc2-c1ccc(F)cc1` [Example 363]: in experiment [2], the EC50 is below 500 nM.

With `Cn1cc2cc(C(=O)NC[C@](O)(c3cc4c(c(-c5ccc(F)cc5)n3)OC[C@]4(C)C(N)=O)C(F)(F)F)ccc2n1` [Example 637], in experiment [1], the EC50 was below 200 nM.

Regarding `Cn1cc2cc(C(=O)NC[C@](O)(c3cc4c(c(-c5ccc(F)c(Cl)c5)n3)OC[C@]4(C)C(N)=O)C(F)(F)F)ccc2n1` [Example 639], the EC50 in experiment [1] is below 200 nM.

In the case of `CN1Cc2cc(C(=O)NC[C@](O)(c3cc4c(c(-c5ccc(F)cc5)n3)OC[C@]4(C)C(=O)NCC(C)(C)O)C(F)(F)F)ccc2C1=O` [Example 643], in experiment [1], the EC50 was below 200 nM.

`CN1Cc2cc(C(=O)NC[C@](O)(c3cc4c(c(-c5ccc(F)cc5)n3)OC[C@]4(C)C(N)=O)C(F)(F)F)ccc2C1=O` [Example 644]: in experiment [1], the EC50 is below 200 nM.

With `CN1Cc2cc(C(=O)NC[C@](O)(c3cc4c(c(-c5ccc(F)c(Cl)c5)n3)OC[C@]4(C)C(N)=O)C3CC3)ccc2C1=O` [Example 645], in experiment [1], the EC50 was below 200 nM.

As for `CN1Cc2cc(C(=O)NC[C@](O)(c3cc4c(c(-c5ccc(F)c(Cl)c5)n3)OC[C@]4(C)C(N)=O)C(F)(F)F)ccc2C1=O` [Example 646], in experiment [1], the EC50 is below 200 nM.

Take `COc1cc(C(=O)NC[C@](O)(c2cc3c(c(-c4ccc(F)cc4)n2)OC[C@]3(C)C(N)=O)C(F)(F)F)ccc1OCC(C)(C)O` [Example 647]: in experiment [1], the EC50 is below 200 nM.

With `Cc1cnc2c(S(C)(=O)=O)cc(C(=O)NC[C@](O)(c3cc4c(c(-c5ccc(F)cc5)n3)OC[C@]4(C)C(N)=O)C(F)(F)F)cc2c1` [Example 648], the EC50 in experiment [1] was below 200 nM.

Take `COc1cc(C(=O)NC[C@](O)(c2cc3c(c(-c4ccc(F)cc4)n2)OC[C@]3(C)C(N)=O)C(F)(F)F)cc2cc(S(C)(=O)=O)cnc12` [Example 649]: the half-maximal effective concentration (EC50) in experiment [1] is above 200 nM.

On to `COc1cc(C(=O)NC[C@](O)(c2cc3c(c(-c4ccc(F)cc4)n2)NC[C@]3(C)CO)C(F)(F)F)ccc1OCCO` [Example 650], for which the EC50 in experiment [1] is below 200 nM.

Regarding `C[C@]1(C(N)=O)COc2c1cc([C@@](O)(CNC(=O)c1ccc3ncc(C(F)(F)F)cc3c1)C(F)(F)F)nc2-c1ccc(F)cc1` [Example 651], the EC50 in experiment [1] was below 200 nM.

In the case of `Cc1ccc2cc(C(=O)NC[C@](O)(c3cc4c(c(-c5ccc(F)cc5)n3)OC[C@]4(C)C(N)=O)C(F)(F)F)cc(N3CCCC3=O)c2n1` [Example 652], the EC50 in experiment [1] is above 200 nM.

As for `Cc1ccc2cc(C(=O)NC[C@](O)(c3cc4c(c(-c5ccc(F)c(Cl)c5)n3)OC[C@]4(C)C(N)=O)C(F)(F)F)cc(N3CCCC3=O)c2n1` [Example 653], the EC50 in experiment [1] is above 200 nM.

With `Cn1cc2cc(C(=O)NC[C@](O)(c3cc4c(c(-c5ccc(F)cc5)n3)OC[C@]4(C)C(N)=O)C(F)(F)F)cc(F)c2n1` [Example 654], the EC50 in experiment [1] was below 200 nM.

On to `CCn1cc2cc(C(=O)NC[C@](O)(c3cc4c(c(-c5ccc(F)cc5)n3)OC[C@]4(C)C(N)=O)C(F)(F)F)ccc2n1` [Example 655], for which, in experiment [1], the 50% effective concentration (EC50) was below 200 nM.

As to `Cc1n[nH]c2ccc(C(=O)NC[C@](O)(c3cc4c(c(-c5ccc(F)cc5)n3)OC[C@]4(C)C(N)=O)C(F)(F)F)cc12` [Example 658], the EC50 in experiment [1] was below 200 nM.

As for `Cc1cnc2c(N3CCNC3=O)cc(C(=O)NC[C@](O)(c3cc4c(c(-c5ccc(F)cc5)n3)OC[C@]4(C)C(N)=O)C(F)(F)F)cc2c1` [Example 659], the EC50 in experiment [1] was below 200 nM.

`Cc1cc2cc(C(=O)NC[C@](O)(c3cc4c(c(-c5ccc(F)cc5)n3)OC[C@]4(C)C(N)=O)C(F)(F)F)cc(NC(=O)NC3COC3)c2nc1C` [Example 660]: in experiment [1], the EC50 was below 200 nM.

Regarding `Cc1cc2cc(C(=O)NC[C@](O)(c3cc4c(c(-c5ccc(F)cc5)n3)OC[C@]4(C)C(N)=O)C(F)(F)F)cc(NC(=O)NCC(C)(C)O)c2nc1C` [Example 661], the concentration giving a half-maximal response (EC50) in experiment [1] was below 200 nM.

Take `Cc1cc2cc(C(=O)NC[C@](O)(c3cc4c(c(-c5ccc(F)cc5)n3)OC[C@]4(C)C(N)=O)C(F)(F)F)cc(NC(=O)C3(F)CC3)c2nc1C` [Example 662]: the EC50 in experiment [1] is below 200 nM.

For `NC(=O)C1(F)COc2c1cc([C@@](O)(CNC(=O)c1cc(OC3CC3)c3ncccc3c1)C(F)(F)F)nc2-c1ccc(F)cc1` (some centres unmarked) [Example 665], the 50% effective concentration (EC50) in experiment [1] was above 200 nM.

Turning to `COc1cc(C(=O)NC[C@](O)(c2cc3c(c(-c4ccc(F)cc4)n2)OC[C@]3(F)C(N)=O)C(F)(F)F)ccc1OC1CC1` [Example 666], the concentration for a half-maximal effect (EC50) in experiment [1] was below 200 nM.

Take `COc1cc(C(=O)NC[C@](O)(c2cc3c(c(-c4ccc(F)cc4)n2)OC[C@@]3(F)C(N)=O)C(F)(F)F)ccc1OC1CC1` [Example 667]: the concentration giving a half-maximal response (EC50) in experiment [1] is above 200 nM.

For `COc1cc(C(=O)NC[C@](O)(c2cc3c(c(-c4ccc(F)cc4)n2)OCC3(F)C(N)=O)C(F)(F)F)cc2cc(C(F)(F)F)cnc12` (some centres unmarked) [Example 671], in experiment [1], the 50% effective concentration (EC50) is below 200 nM.

Consider `COc1cc(C(=O)NC[C@](O)(c2cc3c(c(-c4ccc(F)cc4)n2)OCC3(F)C(N)=O)C(F)(F)F)cn2cc(C3CC3)nc12` (some centres unmarked) [Example 672], for which the 50% effective concentration (EC50) in experiment [1] was below 200 nM.

For `C[C@@H](O)COc1ccc(C(=O)NC[C@](O)(c2cc3c(c(-c4ccc(F)cc4)n2)OC[C@]3(F)C(N)=O)C(F)(F)F)cc1OC1CC1` [Example 674], the half-maximal effective concentration (EC50) in experiment [1] is above 200 nM.
